Experimental data published in US7008905B2, “Method of combating undesired plant growth on cereals” (BASF Aktiengesellschaft, priority 2000, dated 2006).

Columns and labels:
Assay type in all cases: in vivo
[1] = test system: Triticum aestivum variety “Monopol”; assay: Pre-emergence test, selectivity; conditions: 3 weeks after treatment, rating 0-100 (100=death), Table 4
Experimental: (§1) The pre-emergence tests involve spraying a liquid formulation of the compound onto the soil in which the seeds of the plant species mentioned above has recently been sown.
(§2) The soil used in the tests is a prepared horticultural loam. The formulations used in the tests are prepared from solutions of the test compounds in acetone containing 0.4% by weight of an alkylphenol/ethylene oxide condensate available under the trade mark TRITON X-155.
(§3) These acetone solutions are diluted with water and the resulting formulations applied at dosage levels corresponding to 15 g, 30 g, 60 g, 120 g or 240 g of active material per hectare in a volume equivalent to 900 liters per hectare. In these tests untreated sown soil is used as control. The herbicidal effects of the test compounds are assessed visually three weeks after spraying the soil and are recorded an a 0 to 100 scale. A rating 0 indicates growth as untreated control, a rating 100 indicates death. An increase of 10 unit an the linear scale approximates to a 10% increase in the level of effect. The results of the assessment are set out in Tables 1 to 4.

[2] = test system: Triticum aestivum variety “Kanzler”; assay: Pre-emergence test, selectivity; conditions: 3 weeks after treatment, rating 0-100 (100=death), Table 4
Experimental: as §1, §2, §3

[3] = test system: PAPRH; assay: Pre-emergence test, weed control; conditions: 3 weeks after treatment, rating 0-100 (100=death), Table 3
Experimental: as §1, §2, §3

[4] = test system: VIOAR; assay: Pre-emergence test, weed control; conditions: 3 weeks after treatment, rating 0-100 (100=death), Table 3
Experimental: as §1, §2, §3

[5] = test system: Lamium purpureum; assay: Pre-emergence test, weed control; conditions: 3 weeks after treatment, rating 0-100 (100=death), Table 3
Experimental: as §1, §2
(§4) In these tests untreated sown soil is used as control. The herbicidal effects of the test compounds are assessed visually three weeks after spraying the soil and are recorded an a 0 to 100 scale. A rating 0 indicates growth as untreated control, a rating 100 indicates death. An increase of 10 unit an the linear scale approximates to a 10% increase in the level of effect. The results of the assessment are set out in Tables 1 to 4.

[6] = test system: Lolium perenne; assay: Pre-emergence test, weed control; conditions: 3 weeks after treatment, rating 0-100 (100=death), Table 3
Experimental: as §1, §2, §4

[7] = test system: Alopecurus myosuroides; assay: Pre-emergence test, weed control; conditions: 3 weeks after treatment, rating 0-100 (100=death), Table 3
Experimental: as §1, §2, §4

[8] = test system: Poa annua; assay: Pre-emergence test, weed control; conditions: 3 weeks after treatment, rating 0-100 (100=death), Table 3
Experimental: as §1, §2, §4

[9] = test system: Apera spica-venti; assay: Pre-emergence test, weed control; conditions: 3 weeks after treatment, rating 0-100 (100=death), Table 3
Experimental: as §1, §2, §4

[10] = test system: Stellaria media; assay: Pre-emergence test, weed control; conditions: 3 weeks after treatment, rating 0-100 (100=death), Table 3
Experimental: as §1, §2, §4

[11] = test system: Veronica persica; assay: Pre-emergence test, weed control; conditions: 3 weeks after treatment, rating 0-100 (100=death), Table 3
Experimental: as §1, §2, §4

[12] = test system: Galium aparine; assay: Pre-emergence test, weed control; conditions: 3 weeks after treatment, rating 0-100 (100=death), Table 3
Experimental: as §1, §2, §4

[13] = test system: Matricaria inodora; assay: Pre-emergence test, weed control; conditions: 3 weeks after treatment, rating 0-100 (100=death), Table 3
Experimental: as §1, §2, §4

[14] = test system: Setaria viridis; assay: Pre-emergence test, weed control; conditions: 3 weeks after treatment, rating 0-100 (100=death), Table 3
Experimental: as §1, §2, §4

[15] = test system: wheat; assay: Pre-emergence test, tolerance in wheat; conditions: in vivo
Experimental: as §1, §2, §3

Cc1cnc(-c2ccc(C(F)(F)F)cc2)nc1Oc1ccnc(Cl)c1 [REF-4]
TRZAWM rating (Selectivity) ([1]; 0.030 kg/ha): 15
TRZAWM rating (Selectivity) ([1]; 0.060 kg/ha): 8
TRZAWM rating (Selectivity) ([1]; 0.120 kg/ha): 22
TRZAWM rating (Selectivity) ([1]; 0.240 kg/ha): 35
TRZAWK rating (Selectivity) ([2]; 0.030 kg/ha): 10
TRZAWK rating (Selectivity) ([2]; 0.060 kg/ha): 15
TRZAWK rating (Selectivity) ([2]; 0.120 kg/ha): 22
TRZAWK rating (Selectivity) ([2]; 0.240 kg/ha): 22
PAPRH weed control rating ([3]; 0.030 kg/ha): 100
PAPRH weed control rating ([3]; 0.060 kg/ha): 100
PAPRH weed control rating ([3]; 0.120 kg/ha): 100
PAPRH weed control rating ([3]; 0.240 kg/ha): 100
VIOAR weed control rating ([4]; 0.030 kg/ha): 99
VIOAR weed control rating ([4]; 0.060 kg/ha): 100
VIOAR weed control rating ([4]; 0.120 kg/ha): 100
VIOAR weed control rating ([4]; 0.240 kg/ha): 100
LAMPU weed control rating ([5]; 0.030 kg/ha): 97
LAMPU weed control rating ([5]; 0.060 kg/ha): 100
LAMPU weed control rating ([5]; 0.120 kg/ha): 100
LAMPU weed control rating ([5]; 0.240 kg/ha): 100
LOLPE weed control rating ([6]; 0.030 kg/ha): 98
LOLPE weed control rating ([6]; 0.060 kg/ha): 98
LOLPE weed control rating ([6]; 0.120 kg/ha): 100
LOLPE weed control rating ([6]; 0.240 kg/ha): 100
ALOMY weed control rating ([7]; 0.030 kg/ha): 20
ALOMY weed control rating ([7]; 0.060 kg/ha): 92
ALOMY weed control rating ([7]; 0.120 kg/ha): 93
ALOMY weed control rating ([7]; 0.240 kg/ha): 98
POAAN weed control rating ([8]; 0.030 kg/ha): 100
POAAN weed control rating ([8]; 0.060 kg/ha): 100
POAAN weed control rating ([8]; 0.120 kg/ha): 100
POAAN weed control rating ([8]; 0.240 kg/ha): 100
APESV weed control rating ([9]; 0.030 kg/ha): 100
APESV weed control rating ([9]; 0.060 kg/ha): 100
APESV weed control rating ([9]; 0.120 kg/ha): 100
APESV weed control rating ([9]; 0.240 kg/ha): 100
STEME weed control rating ([10]; 0.030 kg/ha): 92
STEME weed control rating ([10]; 0.060 kg/ha): 100
STEME weed control rating ([10]; 0.120 kg/ha): 100
STEME weed control rating ([10]; 0.240 kg/ha): 100
VERPE weed control rating ([11]; 0.030 kg/ha): 98
VERPE weed control rating ([11]; 0.060 kg/ha): 100
VERPE weed control rating ([11]; 0.120 kg/ha): 100
VERPE weed control rating ([11]; 0.240 kg/ha): 100
GALAP weed control rating ([12]; 0.240 kg/ha): 90
MATIN weed control rating ([13]; 0.030 kg/ha): 100
MATIN weed control rating ([13]; 0.060 kg/ha): 100
MATIN weed control rating ([13]; 0.120 kg/ha): 100
MATIN weed control rating ([13]; 0.240 kg/ha): 100
SETVI weed control rating ([14]; 0.030 kg/ha): 65
SETVI weed control rating ([14]; 0.060 kg/ha): 80
SETVI weed control rating ([14]; 0.120 kg/ha): 100
SETVI weed control rating ([14]; 0.240 kg/ha): 100
maximum tolerated dose in wheat / dose at which sufficiently selective in wheat [15]: 60 g/ha

Cc1nc(-c2ccc(C(F)(F)F)cc2)nc(Oc2ccnc(Cl)c2)c1C [REF-5]
TRZAWM rating (Selectivity) ([1]; 0.120 kg/ha): 1
TRZAWM rating (Selectivity) ([1]; 0.240 kg/ha): 8
TRZAWK rating (Selectivity) ([2]; 0.120 kg/ha): 1
TRZAWK rating (Selectivity) ([2]; 0.240 kg/ha): 8
PAPRH weed control rating ([3]; 0.030 kg/ha): 85
PAPRH weed control rating ([3]; 0.060 kg/ha): 95
PAPRH weed control rating ([3]; 0.120 kg/ha): 100
PAPRH weed control rating ([3]; 0.240 kg/ha): 100
VIOAR weed control rating ([4]; 0.030 kg/ha): 96
VIOAR weed control rating ([4]; 0.060 kg/ha): 97
VIOAR weed control rating ([4]; 0.120 kg/ha): 98
VIOAR weed control rating ([4]; 0.240 kg/ha): 99
LAMPU weed control rating ([5]; 0.030 kg/ha): 0
LAMPU weed control rating ([5]; 0.060 kg/ha): 20
LAMPU weed control rating ([5]; 0.120 kg/ha): 55
LAMPU weed control rating ([5]; 0.240 kg/ha): 100
LOLPE weed control rating ([6]; 0.030 kg/ha): 40
LOLPE weed control rating ([6]; 0.060 kg/ha): 90
LOLPE weed control rating ([6]; 0.120 kg/ha): 98
LOLPE weed control rating ([6]; 0.240 kg/ha): 99
ALOMY weed control rating ([7]; 0.030 kg/ha): 5
ALOMY weed control rating ([7]; 0.060 kg/ha): 15
ALOMY weed control rating ([7]; 0.120 kg/ha): 30
ALOMY weed control rating ([7]; 0.240 kg/ha): 35
POAAN weed control rating ([8]; 0.030 kg/ha): 92
POAAN weed control rating ([8]; 0.060 kg/ha): 100
POAAN weed control rating ([8]; 0.120 kg/ha): 100
POAAN weed control rating ([8]; 0.240 kg/ha): 100
APESV weed control rating ([9]; 0.030 kg/ha): 100
APESV weed control rating ([9]; 0.060 kg/ha): 100
APESV weed control rating ([9]; 0.120 kg/ha): 100
APESV weed control rating ([9]; 0.240 kg/ha): 100
STEME weed control rating ([10]; 0.030 kg/ha): 10
STEME weed control rating ([10]; 0.060 kg/ha): 25
STEME weed control rating ([10]; 0.120 kg/ha): 35
STEME weed control rating ([10]; 0.240 kg/ha): 70
VERPE weed control rating ([11]; 0.030 kg/ha): 55
VERPE weed control rating ([11]; 0.060 kg/ha): 93
VERPE weed control rating ([11]; 0.120 kg/ha): 95
VERPE weed control rating ([11]; 0.240 kg/ha): 100
GALAP weed control rating ([12]; 0.030 kg/ha): 2
GALAP weed control rating ([12]; 0.060 kg/ha): 5
GALAP weed control rating ([12]; 0.120 kg/ha): 50
MATIN weed control rating ([13]; 0.030 kg/ha): 85
MATIN weed control rating ([13]; 0.060 kg/ha): 100
MATIN weed control rating ([13]; 0.120 kg/ha): 100
MATIN weed control rating ([13]; 0.240 kg/ha): 100
SETVI weed control rating ([14]; 0.030 kg/ha): 20
SETVI weed control rating ([14]; 0.060 kg/ha): 50
SETVI weed control rating ([14]; 0.120 kg/ha): 95
SETVI weed control rating ([14]; 0.240 kg/ha): 100
maximum tolerated dose in wheat / dose at which sufficiently selective in wheat [15]: 240 g/ha
